From patent publication US20070142457A1, “Crystalline forms of docetaxel and processes for their preparation” (priority 2005, published 2007)

Assay: solubility compared with docetaxel trihydrate
Assay type: physicochemical
Conditions: relative to docetaxel trihydrate; statement in words, no method or figures given

CC(=O)O[C@@]12CO[C@@H]1C[C@H](O)[C@@]1(C)C(=O)[C@H](O)C3=C(C)[C@@H](OC(=O)[C@H](O)[C@@H](NC(=O)OC(C)(C)C)c4ccccc4)C[C@@](O)([C@@H](OC(=O)c4ccccc4)[C@H]21)C3(C)C [docetaxel polymorph of the invention, docetaxel]
solubility: greater solubility than docetaxel trihydrate
